We go through seven compounds from patent US5407954A, “Arylalkoxyphenoxy-imidazoline compounds” (Merrell Dow Pharmaceuticals Inc., priority 1994, dated 1995).

Data set [1] has as its target T1, cloned rat 5-HT2 receptor (Rattus norvegicus, UniProt P14842).
T1 construct: expressed in transfected cells; host or cells: NIH 3T3 fibroblasts, line 'GF-6'
Put plainly: Affinity for 5-HT2 receptors on transfected fibroblast cell membranes ([125I]LSD competition binding, NIH 3T3 GF-6 cells). The note with it: NIH 3T3 GF-6 cell membranes, 37° C., 60 minutes, pH 7.6. The text has this: Affinity for 5-HT2 receptor on transfected fibroblast cell membranes (partial agonist [^125 I]lysergic acid diethylamide; Elliott, M. J., Kent, A., J. Neurochem. 53: 191-196, 1989.; Peroutka, S. J., Snyder, S. H. , Molec. Pharmacol. 16: 687-699, 1979; Kadan, J. M., Krohn, A. M., Evans, M. J., Ualtz, R. L., Hartig, P. R.; J. Neurochem. 43: 601-606, 1984) is used to determine the potency of test compounds to compete with [^125 I]LSD binding to a NIH 3T3 cell line containing the cloned rat 5-HT2 receptor designated "GF-6" by its originators.[Julius, D., Huang, K. N., Livelli, T. J., Axel, R., and Jessell, T. M., Proc. Natl. Acad. Sci. USA 87:928-932, 1990]
Confluent GF6 cell monolayers are dissociated in Versene and centrifuged at 1000 rpm for 5 minutes. The resulting pellet is homogenized in 10 volumes 0.32M sucrose using a Dounce glass homogenizer, 10 strokes. The suspension is centrifuged at 44,000×g for 15 minutes, and the pellet suspended in […] Hepes-KOH, pH 7.4, using a Polytron. The membranes are then stored at -80° C.
The assay tubes, in triplicate, receive 20 μl of 5 nM [^125 I]LSD, 20 μl of test compound (10^-9 M to 10^-5 M or 10 μM ketanserin for nonspecific binding), 40 μl of membrane suspension (1-5 μg protein/assay tube) in a final volume of 0.1 ml of 50 mM Tris- HCl, pH 7.6. Incubations are carried out at 37° C. for 60 minutes and terminated by addition of 2 ml ice-cold assay buffer end filtered through GF/B glass fiber filters (presoaked in 0.1% polyethyleneimine). Filters are washed twice with 5 ml of cold buffer and transferred to polystyrene tubes for radioactivity determination. Protein concentration was measured using the Bradford dye binding method.
Inhibition of [^125 I]LSD binding by a test compound is indicative of affinity for the 5HT2 receptor site. The molar concentration of a Compound which causes 50% inhibition of the binding of ligand is the IC50. The IC50 value is converted to the Ki value by the method of Cheng and Prusoff.[Cheng, Y. -C and Prusoff, Biochem. Pharmacol. 22:3099-3108, 1973].

The next data set relates to 5-HT1C receptor. The note with it: albeit nonselective; cited from earlier work.
A further data set relates to migraine. The note with it: in vivo; cited from earlier work.
The test system of a further data set is migraine headaches. As to conditions: in vivo; cited from earlier work.

T1 sequence (P14842 whole entry): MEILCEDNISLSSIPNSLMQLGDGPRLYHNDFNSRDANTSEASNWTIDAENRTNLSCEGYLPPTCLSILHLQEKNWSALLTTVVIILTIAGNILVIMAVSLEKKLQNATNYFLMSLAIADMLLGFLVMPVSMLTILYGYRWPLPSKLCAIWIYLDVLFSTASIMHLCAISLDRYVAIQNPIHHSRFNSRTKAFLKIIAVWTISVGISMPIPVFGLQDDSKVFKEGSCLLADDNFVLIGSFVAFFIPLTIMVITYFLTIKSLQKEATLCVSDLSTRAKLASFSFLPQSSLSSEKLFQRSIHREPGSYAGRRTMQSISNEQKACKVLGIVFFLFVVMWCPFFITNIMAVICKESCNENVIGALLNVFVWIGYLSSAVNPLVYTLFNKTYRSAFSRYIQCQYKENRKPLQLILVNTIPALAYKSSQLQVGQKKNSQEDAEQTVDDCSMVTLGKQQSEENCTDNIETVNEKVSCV

As usually defined, the IC50 is the midpoint of a concentration-inhibition curve. Take `c1ccc(COc2ccccc2OC(Cc2ccccc2)C2=NCCN2)cc1` (stereo not drawn) [101,600, 2-[1-(2-benzyloxyphenoxy)-2-phenyl]ethylimidazoline]: the IC50 in data set [1] amounted to 2.5 nM. This lies in the single-digit nanomolar range. Regarding `CN1CCC(=C2c3ccccc3CCc3sccc32)CC1` [pizotifen], the “5-HT1C receptor antagonist activities” value with 5-HT1C receptor was “potent 5-HT1C receptor antagonist activities (albeit nonselective)”. The migraine prophylactic effectiveness entry with migraine was “well established as effective migraine prophylactic agents”.

In the case of `c1ccc(CCOc2ccccc2OC(Cc2ccccc2)C2=NCCN2)cc1` (stereo not drawn) [101,623, 2-(1-[2-(2-phenylethoxy)phenoxy]-2-phenyl)ethylimidazoline], the half-maximal inhibitory concentration (IC50) in data set [1] amounted to 14 nM.

In turn, `COc1ccc(CC(Oc2ccccc2OCc2ccccc2)C2=NCCN2)cc1` (stereo not drawn) [100,499, 2-[1-(2-benzyloxyphenoxy)-2-(4-methoxyphenyl)]ethylimidazoline] displayed a half-maximal inhibitory concentration (IC50) in data set [1] of 3.5 nM. On to `CC[C@@H](CO)NC(=O)[C@@H]1C=C2c3cccc4c3c(cn4C)C[C@H]2N(C)C1` [methysergide], for which, in the data set on 5-HT1C receptor, the “5-HT1C receptor antagonist activities” value is listed as “potent 5-HT1C receptor antagonist activities (albeit nonselective)”. The migraine prophylactic effectiveness entry with migraine was “well established as effective migraine prophylactic agents”. Regarding `Clc1cccc(N2CCNCC2)c1` [m-chlorophenylpiperazine], in the data set with migraine headaches, the inducing migraine headaches result was “capable of inducing migraine headaches”. On to `c1ccc(CCCC(Oc2ccccc2OCc2ccccc2)C2=NCCN2)cc1` (stereo not drawn) [102,588, 2-[1-(2-benzyloxyphenoxy)-4-phenyl]butylimidazoline], for which, in data set [1], the half-inhibitory concentration (IC50) worked out at 167 nM.
